Measured values from patent US7405200B2, “Use of oxytocin for the preparation of a pharmaceutical composition against cancer in situ and cervicitis” (priority 2001, dated 2008).

Tested on: cancer in situ and cervicitis
Assay: Effect of Oxytocin on Cancer in Situ and Cervicitis in Humans (Pap smear test)
Assay type: in vivo
Conditions: one patient with cancer in situ and cervicitis; oxytocin 1 mg/ml mixed with 1 ml cellulose gel intravaginally during five consecutive days
Experimental: Patients. 20 women, all aged 60–70 years, with postmenopausal disorders, participated in a double blind cross-over randomised protocol, which means that the patients receive both oxytocin and control treatment without knowing the order of the treatments.
Experimental procedure. The patients were treated with oxytocin 1 mg/ml mixed with 1 ml cellulose gel intravaginally during five consecutive days to relieve the postmenopausal disorders. However, it was discovered that one of the patients suffered from cancer in situ and cervicitis before the oxytocin treatment. This was established by the fact that the patient underwent a Pap smear test before the oxytocin treatment. In this test, cells desquamated from the genital epithelium are obtained by smears, fixed and stained, and examined under the microscope for evidence of pathologic changes. After the oxytocin treatment, the patient also underwent a Pap smear test.

oxytocin
results of the Pap smear tests before and after oxytocin administration: the cancer in situ and cervicitis was removed
